Data published in ChEMBL document CHEMBL3871307, “Discovery of Chromane Propionic Acid Analogues as Selective Agonists of GPR120 with in Vivo Activity in Rodents” (ACS Med Chem Lett, 2017).
Activity calls are given as the source filed them. No cut-off for these calls is given here.

Legend:
[1] = target: T1, Free fatty acid receptor 4 (Homo sapiens, UniProt Q5NUL3); assay: Agonist activity at human GPR120 short isoform expressed in CHOK1 cells assessed as beta-arrestin recruitment after 90 mins by luminescence assay; assay type: cell-based, CHO-K1
T1 sequence (Q5NUL3 whole entry): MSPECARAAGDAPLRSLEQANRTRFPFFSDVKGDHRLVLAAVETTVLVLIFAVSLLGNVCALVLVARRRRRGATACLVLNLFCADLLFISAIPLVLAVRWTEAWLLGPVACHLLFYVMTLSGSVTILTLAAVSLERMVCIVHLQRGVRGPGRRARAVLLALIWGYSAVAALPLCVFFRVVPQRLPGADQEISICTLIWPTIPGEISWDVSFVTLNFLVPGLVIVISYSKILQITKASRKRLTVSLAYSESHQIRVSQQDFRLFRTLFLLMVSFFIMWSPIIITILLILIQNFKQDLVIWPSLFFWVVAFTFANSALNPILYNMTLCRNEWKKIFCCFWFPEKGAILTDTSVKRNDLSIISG

[2] = target: T2, Free fatty acid receptor 4 (Homo sapiens) (UniProt Q5NUL3); assay: Agonist activity at human GPR120 short isoform expressed in CHOK1 cells assessed as increase in IP1 accumulation at 10 uM after 60 mins by HTRF assay; assay type: functional, cell-based; settings: CHO-K1
T2 sequence (whole entry): T1 sequence (Q5NUL3 whole entry)

[3] = target: Free fatty acid receptor 1 (Homo sapiens, UniProt O14842); assay: Agonist activity at human GPR40 expressed in HEK293 cells assessed as increase in IP1 accumulation after 60 mins by HTRF assay; assay type: functional, cell-based
[4] = target: T1, Free fatty acid receptor 4; assay: Agonist activity at human GPR120 short isoform expressed in CHOK1 cells assessed as increase in IP1 accumulation after 60 mins by HTRF assay; assay type: functional, cell-based, CHO-K1
Mus musculus [5] = assay: Glucose lowering effect in C57BL/6 transverse aortic constriction mouse assessed as reduction in blood glucose at 30 mg/kg, po pretreated for 60 mins as single dose via gavage followed by dextrose challenge measured up to 120 mins post glucose challenge by OGTT; assay type: functional, organism-based
[6] = Plasma concentration in C57BL/6 transverse aortic constriction mouse at 30 mg/kg, po via gavage measured at 3 hrs; assay type: ADME, organism-based; settings: C57BL/6, mouse
[7] = Plasma concentration in C57BL/6 transverse aortic constriction mouse at 100 mg/kg, po via gavage measured at 3 hrs; assay type: ADME, organism-based; settings: C57BL/6, mouse
[8] = target: T3, Free fatty acid receptor 4 (Mus musculus) (UniProt Q7TMA4); assay: (§1) Agonist activity at mouse GPR120 expressed in CHOK1 cells assessed as increase in IP1 accumulation after 60 mins by HTRF assay; assay type: functional, cell-based; settings: CHO-K1
T3 sequence (whole entry): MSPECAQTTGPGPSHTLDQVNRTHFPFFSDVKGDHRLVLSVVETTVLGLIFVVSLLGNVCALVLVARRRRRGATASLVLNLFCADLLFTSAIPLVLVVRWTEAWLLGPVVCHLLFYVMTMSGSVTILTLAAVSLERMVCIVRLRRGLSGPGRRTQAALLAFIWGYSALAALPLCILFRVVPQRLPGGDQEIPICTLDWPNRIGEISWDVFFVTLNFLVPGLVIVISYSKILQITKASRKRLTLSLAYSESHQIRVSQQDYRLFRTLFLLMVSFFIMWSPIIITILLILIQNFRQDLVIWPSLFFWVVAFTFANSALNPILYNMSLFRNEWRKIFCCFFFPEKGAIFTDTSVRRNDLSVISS

Mus musculus [9] = assay: Glucose lowering effect in C57BL/6 transverse aortic constriction mouse assessed as reduction in blood glucose at 100 mg/kg, po pretreated for 60 mins as single dose via gavage followed by dextrose challenge measured up to 120 mins post glucose challenge by OGTT; assay type: functional, organism-based
[10] = Plasma concentration in wild type C57BL/6 transverse aortic constriction mouse harboring GPR120 at 150 mg/kg, po measured at 3 hrs; assay type: ADME, organism-based; settings: C57BL/6, mouse
Mus musculus [11] = assay: In vivo agonist activity at GPR120 in wild type C57BL/6 transverse aortic constriction mouse assessed as glucose lowering effect at 150 mg/kg, po via gavage pretreated for 60 mins followed by dextrose challenge measured up to 120 mins post glucose challenge by OGTT; assay type: functional, organism-based
[12] = Volume of distribution at steady state in rat plasma at 0.1 mg/kg administered as iv casette dose by LC/MS/MS analysis; assay type: ADME, organism-based; settings: read-out: Vdss
[13] = target: T4, Free fatty acid receptor 4 (Mus musculus, UniProt Q7TMA4); assay: as §1; assay type: functional, cell-based, CHO-K1
T4 sequence (Q7TMA4 whole entry): T3 sequence (whole entry)

[14] = target: T4, Free fatty acid receptor 4; assay: Agonist activity at mouse GPR120 expressed in human U2OS cells assessed as beta-arrestin recruitment after 90 mins by luminescence assay; assay type: cell-based
[15] = Terminal half life in rat plasma at 0.1 mg/kg administered as iv casette dose by LC/MS/MS analysis; assay type: ADME, organism-based; settings: read-out: beta t1/2 (converted)
[16] = Clearance in rat plasma at 0.1 mg/kg administered as iv casette dose by LC/MS/MS analysis; assay type: ADME, organism-based
[17] = Intrinsic clearance in rat plasma at 0.1 mg/kg administered as iv casette dose by LC/MS/MS analysis; assay type: ADME, organism-based; settings: in vivo
[18] = target: Free fatty acid receptor 1 (Mus musculus, UniProt Q76JU9); assay: Agonist activity at mouse GPR40 assessed as increase in IP1 accumulation after 60 mins by HTRF assay; assay type: functional
[19] = Plasma concentration in GPR120 knockout C57BL/6 transverse aortic constriction mouse at 150 mg/kg, po measured at 3 hrs; assay type: ADME, organism-based; settings: C57BL/6, mouse
[20] = Protein binding in rat plasma at 0.1 mg/kg administered as iv casette dose by LC/MS/MS analysis; assay type: ADME, organism-based; settings: read-out: PPB (converted)

Free fatty acid receptor 1 (Homo sapiens, UniProt O14842), sequence (O14842 whole entry, canonical isoform): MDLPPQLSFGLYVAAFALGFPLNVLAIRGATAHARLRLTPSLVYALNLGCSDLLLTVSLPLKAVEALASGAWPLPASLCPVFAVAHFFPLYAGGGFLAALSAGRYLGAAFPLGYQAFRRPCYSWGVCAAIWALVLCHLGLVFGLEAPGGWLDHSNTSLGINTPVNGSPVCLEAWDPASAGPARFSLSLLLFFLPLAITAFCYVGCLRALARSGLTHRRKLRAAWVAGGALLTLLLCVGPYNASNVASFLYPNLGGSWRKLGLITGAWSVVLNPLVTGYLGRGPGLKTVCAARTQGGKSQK
Free fatty acid receptor 1 (Mus musculus, UniProt Q76JU9), sequence (Q76JU9 whole entry): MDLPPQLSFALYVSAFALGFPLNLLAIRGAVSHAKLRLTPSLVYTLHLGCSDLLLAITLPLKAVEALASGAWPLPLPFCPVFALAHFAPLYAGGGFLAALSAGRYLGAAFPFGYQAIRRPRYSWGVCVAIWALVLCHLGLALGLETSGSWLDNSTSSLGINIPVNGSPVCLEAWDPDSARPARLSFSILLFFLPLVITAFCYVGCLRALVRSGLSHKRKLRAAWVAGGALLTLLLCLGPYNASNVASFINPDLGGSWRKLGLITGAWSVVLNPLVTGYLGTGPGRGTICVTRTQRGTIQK

| SMILES | EC50 [1] [nM] | Activity [2] [%] | EC50 [3] [µM] | EC50 [4] [nM] | further results |
| --- | --- | --- | --- | --- | --- |
| CO[C@H]1C[C@H](Oc2cc(F)c(F)c(-c3ccc4c(c3)CC[C@H](CCc3nnn[nH]3)O4)c2)C1 | 170 | 24 | > 10 | 240 |  |
| COc1cc(OC2CCC2)cc(-c2ccc3c(c2)CC[C@H](CCC(=O)O)O3)c1F | 9 | > 50 | > 10 | 15 |  |
| CO[C@H]1C[C@H](Oc2cc(F)c(F)c(-c3ccc4c(c3)CC[C@H]([C@@H]3C[C@H]3C(=O)O)O4)c2)C1 | 17 | > 50 | > 10 | 45 | Activity (Mus musculus [5]): Active; concentration at 3 h [6]: 37.4 µM |
| COc1cc(OC2CCC2)cc(-c2ccc3c(c2)CC[C@H]([C@@H]2C[C@H]2C(=O)O)O3)c1F | 8 | > 50 | > 10 | 25 |  |
| COc1cc(OC2CCC2)nc(-c2ccc3c(c2)CC[C@H](CCC(=O)O)O3)c1F | 6.2 | > 50 | > 10 | 15 |  |
| Fc1ccc(OC2CCC2)cc1-c1ccc2c(c1)CC[C@H](CCc1nnn[nH]1)O2 | 84 | 44 | > 10 | 220 | concentration at 3 h [7]: 40.6 µM; Activity [8]: Active; Activity (Mus musculus [9]): Active |
| COc1cc(OC2CC2)cc(-c2ccc3c(c2)CC[C@H](CCc2nnn[nH]2)O3)c1F | 32 | > 50 | > 10 | 51 |  |
| COc1cc(O[C@H]2C[C@H](OC)C2)nc(-c2ccc3c(c2)CC[C@H](CCC(=O)O)O3)c1F | 5 | > 50 | > 10 | 14 | concentration at 3 h [10]: 33.5 µM; Activity (Mus musculus [11]): Active; Vd [12]: 0.49 L/kg; EC50 [13]: 5.6 nM; EC50 [14]: 4.6 nM; half-life [15]: 144 min; clearance [16]: 3.4 mL/min/kg; CL [17]: 760 mL/min/kg; EC50 [18]: > 10 µM; concentration at 3 h [19]: 27.6 µM; fraction unbound [20]: 0.0032 |
| COc1cc(OC(F)(F)F)cc(-c2ccc3c(c2)CC[C@H](CCC(=O)O)O3)c1F | 11 | > 50 | 4.4 | 25 |  |
| O=C(O)CC[C@H]1CCc2cc(-c3cc(OC(F)(F)F)cc(Cl)c3F)ccc2O1 | 17 | > 50 | 2.2 | 72 |  |
| COc1cc(OC(F)(F)F)cc(-c2ccc3c(c2)CC[C@H](CCc2nnn[nH]2)O3)c1F | 150 | 45 | > 10 | 130 |  |
| O=C(O)[C@@H]1C[C@H]1[C@H]1CCc2cc(-c3cc(OC(F)(F)F)ccc3F)ccc2O1 | 33 | > 50 | > 10 | 69 |  |
| O=C(O)[C@H]1C[C@@H]1[C@H]1CCc2cc(-c3cc(OC(F)(F)F)ccc3F)ccc2O1 | 130 | > 50 | > 10 | 320 |  |
| Fc1ccc(OC(F)(F)F)cc1-c1ccc2c(c1)CC[C@H](CCc1nnn[nH]1)O2 | 890 | 17 | > 10 | 330 |  |
| Cc1cnc(Oc2cc(Cl)c(F)c(-c3ccc4c(c3)CC[C@H](CCC(=O)O)O4)c2)s1 | 5.6 | > 50 | > 10 | 14 | Vd [12]: 0.14 L/kg; half-life [15]: 55.8 min; clearance [16]: 1.6 mL/min/kg; CL [17]: 6200 mL/min/kg; fraction unbound [20]: 0.0003 |
| O=C(O)CC[C@@H]1CCc2cc(-c3cc(OC(F)(F)F)ccc3F)ccc2O1 | 42 | > 50 | > 10 | 180 |  |
| COc1cc(O[C@H]2C[C@H](OC)C2)cc(-c2ccc3c(c2)CC[C@H]([C@@H]2C[C@H]2C(=O)O)O3)c1F | 78 | > 50 | > 10 | 55 |  |
| O=C(O)CC[C@H]1CCc2cc(-c3cc(OC(F)(F)F)ccc3F)ccc2O1 | 17 | > 50 | 2.1 | 170 | Vd [12]: 0.64 L/kg; half-life [15]: 78 min; clearance [16]: 9.5 mL/min/kg; CL [17]: 10500 mL/min/kg; fraction unbound [20]: 0.0016 |
| COc1cc(O[C@H]2C[C@H](OC)C2)cc(-c2ccc3c(c2)CC[C@H](CCc2nnn[nH]2)O3)c1F | 43 | > 50 | > 10 | 53 |  |
| O=C(O)CC[C@H]1CCc2cc(-c3cc(OC4CCC4)cc(F)c3F)ccc2O1 | 13 | > 50 | > 10 | 21 | Vd [12]: 0.45 L/kg; half-life [15]: 78 min; clearance [16]: 5.4 mL/min/kg; CL [17]: 8700 mL/min/kg; fraction unbound [20]: 0.0007 |
| O=C(O)CC[C@H]1CCc2cc(-c3nc(OC4CCC4)ccc3F)ccc2O1 | 21 | > 50 | > 10 | 30 | Vd [12]: 0.23 L/kg; half-life [15]: 44.4 min; clearance [16]: 9.1 mL/min/kg; CL [17]: 4500 mL/min/kg; fraction unbound [20]: 0.0023 |
| O=C(O)CC[C@H]1CCc2cc(-c3cc(OC4CCC4)ncc3F)ccc2O1 | 230 | > 50 | 2 | 250 |  |
| O=C(O)CC[C@H]1CCc2cc(-c3cc(OC4CCC4)cnc3F)ccc2O1 | 140 | > 50 | > 10 | 79 |  |
| COc1cc(Oc2ncc(C)s2)cc(-c2ccc3c(c2)CC[C@H](CCC(=O)O)O3)c1F | 13 | > 50 | > 10 | 37 | Vd [12]: 0.15 L/kg; half-life [15]: 72 min; clearance [16]: 1.6 mL/min/kg; CL [17]: 3600 mL/min/kg; fraction unbound [20]: 0.0007 |
| COc1cc(OC2CCC2)nc(-c2ccc3c(c2)CC[C@H]([C@@H]2C[C@H]2C(=O)O)O3)c1F | 7.8 | > 50 | > 10 | 18 |  |
| O=C(O)CC[C@H]1CCc2cc(-c3cc(OC4CCC4)cc(Cl)c3F)ccc2O1 | 8.3 | > 50 | > 10 | 40 |  |
| O=C(O)CC[C@H]1CCc2cc(-c3cc(OC4CCC4)ccc3F)ccc2O1 | 10 | > 50 | 3.6 | 28 |  |
